Source: US8252774B2, “5-azaindole bisphosphonates” (Isis Innovation Ltd., priority 2008, dated 2012)

How the values were obtained:
[1] = HAP affinity: chromatographic profiling on hydroxyapatite column (FPLC); format: physicochemical; conditions: phosphate buffer gradient 1 mM up to 1000 mM, pH 6.8, determined in triplicate, longer retention = higher mineral affinity
[2] = target: T1, human farnesyl pyrophosphate synthase (FPPS) (Homo sapiens, UniProt P14324); test: FPPS inhibition in vitro; format: biochemical; conditions: recombinant human FPPS
T1 construct: made in house
T1 sequence (P14324 67-419 limits assumed): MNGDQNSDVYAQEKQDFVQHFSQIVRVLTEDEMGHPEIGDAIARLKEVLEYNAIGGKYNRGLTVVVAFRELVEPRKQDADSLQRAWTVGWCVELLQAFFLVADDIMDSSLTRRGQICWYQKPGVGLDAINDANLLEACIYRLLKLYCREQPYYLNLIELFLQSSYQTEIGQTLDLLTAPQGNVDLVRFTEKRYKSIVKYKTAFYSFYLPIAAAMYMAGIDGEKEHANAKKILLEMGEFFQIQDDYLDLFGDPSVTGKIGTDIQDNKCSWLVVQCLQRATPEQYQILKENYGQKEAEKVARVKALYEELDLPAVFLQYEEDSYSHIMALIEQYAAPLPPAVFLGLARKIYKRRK

Row | SMILES | Retention time [1] | IC50 ([2]; after pre-incubation) | Ki ([2]; final inhibition constant)
1 | O=P(O)(O)C(Cc1c[nH]c2ccncc12)P(=O)(O)O [5-azaindol-3-yl-ethyl-bisphosphonic acid] | 6.3 min | 6.6 nM | 0.6 nM
2 | O=P(O)(O)C(O)(Cc1cnc2ccccn12)P(=O)(O)O [Minodronate] | 10.33 min |  | 
3 | O=P(O)(O)C(O)(Cc1cccnc1)P(=O)(O)O [Risedronate] | 9.97 min |  | 
4 | O=P(O)(O)C(O)(Cn1ccnc1)P(=O)(O)O [Zoledronate] | 12.53 min |  | 
